Literature values, collected in patent US5998416A, “Piperazine, piperidine and tetrahydropyridine derivatives as 5-HT receptor agonists” (Merck Sharp & Dohme Ltd., priority 1996, dated 1999).

Settings: therapeutic doses

CNS(=O)(=O)Cc1ccc2[nH]cc(CCN(C)C)c2c1 [sumatriptan]
adverse cardiovascular events in humans: certain adverse cardiovascular events
